According to US12570655B2, “Cysteine covalent modifiers of AKT1 and uses thereof” (Terremoto Biosciences, Inc., priority 2023, dated 2026):
Read-outs that look alike come from different tables or passages of the source.

Key:
Type in all cases: cell-based
AKT1 E17K = biological target: T1, AKT1 E17K (Homo sapiens, UniProt P31749, E17K); experiment: Live cell AKT1 E17K target engagement by NanoBRET competitive probe displacement; details: HEK293 cells transfected with kinase-NanoLuciferase fusion, 2 h at 37° C.
T1 construct: expressed in transfected cells; host or cells: HEK293
Outline: (§1)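 NanoLuc-kinase fusions, HEK293, transfected overnight; compound serial dilution + ATP-competitive fluorescent tracer at ~EC50; 2 h, 37 °C. Read 460/600 nm with extracellular NanoLuc inhibitor; BRET = E600/E460; IC50 by Hill fit.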

AKT2 = biological target: T2, AKT2 (Homo sapiens, UniProt P31751); experiment: Live cell AKT2 target engagement by NanoBRET competitive probe displacement; details: HEK293 cells transfected with kinase-NanoLuciferase fusion, 2 h at 37° C.
T2 construct: expressed in transfected cells; host or cells: HEK293
Outline: as §1

[1] = tested on: LAPC4 prostate cancer cells; experiment: Antiproliferative effects in LAPC4 cells (CellTiter Glo); details: LAPC4 cells (AKT1 E17K allele), read-out: LAPC4 proliferation IC50
Outline: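 Luminescent ATP read-out (CellTiter Glo) after 72 h compound exposure; 1,000 cells/well in IMDM + 12% FBS + 1% P/S. IC50 by Hill equation fit of luminescence vs. log(inhibitor).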

AKT1 WT = biological target: T3, AKT1 WT (Homo sapiens, UniProt P31749); experiment: Live cell AKT1 WT target engagement by NanoBRET competitive probe displacement; details: HEK293 cells transfected with kinase-NanoLuciferase fusion, 2 h at 37° C.
T3 construct: expressed in transfected cells; host or cells: HEK293
Outline: as §1

T3 sequence (P31749 whole entry, the tested form may be a part): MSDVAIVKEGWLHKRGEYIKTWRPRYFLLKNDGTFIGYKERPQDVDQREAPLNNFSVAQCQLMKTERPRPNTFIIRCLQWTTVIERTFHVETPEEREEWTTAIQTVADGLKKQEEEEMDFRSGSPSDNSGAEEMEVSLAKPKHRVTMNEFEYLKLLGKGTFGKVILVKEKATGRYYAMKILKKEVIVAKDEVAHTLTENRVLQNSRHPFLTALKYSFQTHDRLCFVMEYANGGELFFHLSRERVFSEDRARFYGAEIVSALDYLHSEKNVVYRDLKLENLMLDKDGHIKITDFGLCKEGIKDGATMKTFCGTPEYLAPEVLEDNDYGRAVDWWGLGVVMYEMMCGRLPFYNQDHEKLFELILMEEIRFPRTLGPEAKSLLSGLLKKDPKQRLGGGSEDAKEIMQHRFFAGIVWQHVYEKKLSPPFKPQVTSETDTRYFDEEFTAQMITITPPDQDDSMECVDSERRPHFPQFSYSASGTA
T2 sequence (P31751 whole entry, the tested form may be a part): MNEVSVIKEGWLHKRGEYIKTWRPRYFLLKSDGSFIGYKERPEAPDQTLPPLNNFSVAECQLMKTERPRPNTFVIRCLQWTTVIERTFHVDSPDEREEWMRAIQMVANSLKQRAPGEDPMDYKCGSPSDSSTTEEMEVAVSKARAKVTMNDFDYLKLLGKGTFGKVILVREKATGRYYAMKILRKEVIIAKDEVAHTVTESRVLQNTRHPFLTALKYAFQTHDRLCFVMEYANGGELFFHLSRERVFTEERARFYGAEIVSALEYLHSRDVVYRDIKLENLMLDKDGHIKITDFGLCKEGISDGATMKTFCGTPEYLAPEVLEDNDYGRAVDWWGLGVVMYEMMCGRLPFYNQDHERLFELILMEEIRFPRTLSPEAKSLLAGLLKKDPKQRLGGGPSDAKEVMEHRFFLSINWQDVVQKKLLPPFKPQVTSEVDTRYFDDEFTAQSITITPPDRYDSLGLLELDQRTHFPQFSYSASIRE
T1 sequence (P31749 whole entry E17K, the tested form may be a part): as the sequence (P31749 whole entry, the tested form may be a part) above, with E17K counted along it

SMILES	IC50 (AKT1 E17K) [nM]	IC50 (AKT2) [nM]	IC50 ([1]; 72 h) [nM]	IC50 (AKT1 WT) [nM]	IC50 ([1]; Homo sapiens, LAPC4, 72 h) [nM]
C=CC(=O)N1CCC(N[C@H]2CCc3cc(-n4c(-c5cccnc5N)nc5ccc(C6CC6)nc54)ccc32)C[C@H]1C (single isomer, unassigned) [Example 211, 1-((2R,4*)-4-(((S)-5-(2-(2-aminopyridin-3-yl)-5-cyclopropyl-3H-imidazo[4,5-b]pyridin-3-yl)-2,3-dihydro-1H-inden-1-yl)amino)-2-methylpiperidin-1-yl)prop-2-en-1-one]	23.7	79.8	319	1100	–
C=CC(=O)N1CCC(N[C@H]2CC(O)c3cc(-n4c(-c5cccnc5N)nc5ccc(-n6cccn6)nc54)ccc32)CC1 (single isomer, unassigned) [Example 218, 1-(4-(((1S,3*)-5-(2-(2-aminopyridin-3-yl)-5-(1H-pyrazol-1-yl)-3H-imidazo[4,5-b]pyridin-3-yl)-3-hydroxy-2,3-dihydro-1H-inden-1-yl)amino)piperidin-1-yl)prop-2-en-1-one]	52.3	140	226	365	–
C=CC(=O)N1CCC(N[C@H]2CC(O)c3cc(-n4c(-c5cccnc5N)nc5ccc(-n6cccn6)nc54)ccc32)CC1 (single isomer, unassigned) [Example 219, 1-(4-(((1S,3*)-5-(2-(2-aminopyridin-3-yl)-5-(1H-pyrazol-1-yl)-3H-imidazo[4,5-b]pyridin-3-yl)-3-hydroxy-2,3-dihydro-1H-inden-1-yl)amino)piperidin-1-yl)prop-2-en-1-one]	45.8	95.7	77.1	279	–
C=CC(=O)N1CCC(N[C@H]2CCc3cc(-n4c(-c5cccnc5N)nc5ccc(C6CC6)nc54)ccc32)C(C)C1 (single isomer, unassigned) [Example 229, 1-((3*,4*)-4-(((S)-5-(2-(2-aminopyridin-3-yl)-5-cyclopropyl-3H-imidazo[4,5-b]pyridin-3-yl)-2,3-dihydro-1H-inden-1-yl)amino)-3-methylpiperidin-1-yl)prop-2-en-1-one]	21.9	97.7	–	756	334
C=CC(=O)N1CCC(N[C@H]2CCc3cc(-n4c(-c5cccnc5N)nc5ccc(C6CC6)nc54)ccc32)C(C)C1 (single isomer, unassigned) [Example 230, 1-((3*,4*)-4-(((S)-5-(2-(2-aminopyridin-3-yl)-5-cyclopropyl-3H-imidazo[4,5-b]pyridin-3-yl)-2,3-dihydro-1H-inden-1-yl)amino)-3-methylpiperidin-1-yl)prop-2-en-1-one]	41.9	346	600	890	–
C=CC(=O)N1CCC(N[C@H]2CCc3cc(-n4c(-c5cccnc5N)nc5ccc(C6CC6)nc54)ccc32)C(C)C1 (single isomer, unassigned) [Example 231, 1-((3*,4*)-4-(((S)-5-(2-(2-aminopyridin-3-yl)-5-cyclopropyl-3H-imidazo[4,5-b]pyridin-3-yl)-2,3-dihydro-1H-inden-1-yl)amino)-3-methylpiperidin-1-yl)prop-2-en-1-one]	74.8	174	398	1220	–
C=CC(=O)N1CCC(N[C@H]2CCc3cc(-n4c(-c5cccnc5N)nc5ccc(C6CC6)nc54)ccc32)C(C)C1 (single isomer, unassigned) [Example 232, 1-((3*,4*)-4-(((S)-5-(2-(2-aminopyridin-3-yl)-5-cyclopropyl-3H-imidazo[4,5-b]pyridin-3-yl)-2,3-dihydro-1H-inden-1-yl)amino)-3-methylpiperidin-1-yl)prop-2-en-1-one]	20.8	168	651	1080	–
C=CC(=O)N1CCC(N[C@H]2CC(F)c3cc(-n4c(-c5cccnc5N)nc5ccc(-n6cccn6)nc54)ccc32)CC1 (single isomer, unassigned) [Example 233, 1-(4-(((1S,3*)-5-(2-(2-aminopyridin-3-yl)-5-(1H-pyrazol-1-yl)-3H-imidazo[4,5-b]pyridin-3-yl)-3-fluoro-2,3-dihydro-1H-inden-1-yl)amino)piperidin-1-yl)prop-2-en-1-one]	14.6	28	70	59.7	–
C=CC(=O)N1CCC(N[C@H]2CC(F)c3cc(-n4c(-c5cccnc5N)nc5ccc(-n6cccn6)nc54)ccc32)CC1 (single isomer, unassigned) [Example 234, 1-(4-(((1S,3*)-5-(2-(2-aminopyridin-3-yl)-5-(1H-pyrazol-1-yl)-3H-imidazo[4,5-b]pyridin-3-yl)-3-fluoro-2,3-dihydro-1H-inden-1-yl)amino)piperidin-1-yl)prop-2-en-1-one]	12.1	70.4	330	317	–

Second part, the compound after the results:

IC50 (AKT1 E17K) [nM]	IC50 (AKT2) [nM]	IC50 ([1]; 72 h) [nM]	IC50 (AKT1 WT) [nM]	IC50 ([1]; Homo sapiens, LAPC4, 72 h) [nM]	SMILES
12.4	87.2	–	778	300	C=CC(=O)N1CCC(N[C@@H]2c3ccc(-n4c(-c5cccnc5N)nc5ccc(-n6ccc(F)n6)nc54)cc3CC2F)CC1 (single isomer, unassigned) [Example 236, 1-(4-(((1R,2*)-5-(2-(2-aminopyridin-3-yl)-5-(3-fluoro-1H-pyrazol-1-yl)-3H-imidazo[4,5-b]pyridin-3-yl)-2-fluoro-2,3-dihydro-1H-inden-1-yl)amino)piperidin-1-yl)prop-2-en-1-one]
17.7	89.5	362	542	–	C=CC(=O)N1CCC(N[C@@H]2c3ccc(-n4c(-c5cccnc5N)nc5ccc(-n6ccc(F)n6)nc54)cc3CC2F)CC1 (single isomer, unassigned) [Example 237, 1-(4-(((1R,2*)-5-(2-(2-aminopyridin-3-yl)-5-(3-fluoro-1H-pyrazol-1-yl)-3H-imidazo[4,5-b]pyridin-3-yl)-2-fluoro-2,3-dihydro-1H-inden-1-yl)amino)piperidin-1-yl)prop-2-en-1-one]
20.1	199	–	984	371	C=CC(=O)N1CCC(NC2CCc3cc(-n4c(-c5cccnc5N)nc5ccc(C6CC6(F)F)nc54)ccc32)CC1 (single isomer, unassigned) [Example 244, 1-(4-(((*)-5-(2-(2-aminopyridin-3-yl)-5-((*)-2,2-difluorocyclopropyl)-3H-imidazo[4,5-b]pyridin-3-yl)-2,3-dihydro-1H-inden-1-yl)amino)piperidin-1-yl)prop-2-en-1-one]
37.6	354	526	715	–	C=CC(=O)N1CCC(NC2CCc3cc(-n4c(-c5cccnc5N)nc5ccc(C6CC6(F)F)nc54)ccc32)CC1 (single isomer, unassigned) [Example 245, 1-(4-(((*)-5-(2-(2-aminopyridin-3-yl)-5-((*)-2,2-difluorocyclopropyl)-3H-imidazo[4,5-b]pyridin-3-yl)-2,3-dihydro-1H-inden-1-yl)amino)piperidin-1-yl)prop-2-en-1-one]
43.3	136	227	555	–	C=CC(=O)N1CCC(N[C@H]2CCc3cc(-n4c(-c5cccnc5N)nc5ccc(-n6nccn6)nc54)ccc32)C[C@H]1C (single isomer, unassigned) [Example 261, 1-[(2R,4*)-4-{[(1S)-5-[2-(2-aminopyridin-3-yl)-5-(1,2,3-triazol-2-yl)imidazo[4,5-b]pyridin-3-yl]-2,3-dihydro-1H-inden-1-yl]amino}-2-methylpiperidin-1-yl]prop-2-en-1-one]
29.6	45.9	83.7	650	–	C=CC(=O)N1CCC(N[C@H]2CCc3cc(-n4c(-c5cccnc5N)nc5ccc(-n6nccn6)nc54)ccc32)C[C@H]1C (single isomer, unassigned) [Example 262, 1-[(2R,4*)-4-{[(1S)-5-[2-(2-aminopyridin-3-yl)-5-(1,2,3-triazol-2-yl)imidazo[4,5-b]pyridin-3-yl]-2,3-dihydro-1H-inden-1-yl]amino}-2-methylpiperidin-1-yl]prop-2-en-1-one]
7.21	21	76.3	162	–	C=CC(=O)N1CCC(N[C@@H]2c3ccc(-n4c(-c5cccnc5N)nc5ccc(-n6ccc(F)n6)nc54)cc3CC2F)C[C@@H]1C (single isomer, unassigned) [Example 270, 1-((2S,4*)-4-(((1R,2*)-5-(2-(2-aminopyridin-3-yl)-5-(3-fluoro-1H-pyrazol-1-yl)-3H-imidazo[4,5-b]pyridin-3-yl)-2-fluoro-2,3-dihydro-1H-inden-1-yl)amino)-2-methylpiperidin-1-yl)prop-2-en-1-one]
21.7	248	674	928	–	C=CC(=O)N1CCC(N[C@@H]2c3ccc(-n4c(-c5cccnc5N)nc5ccc(-n6ccc(F)n6)nc54)cc3CC2F)C[C@@H]1C (single isomer, unassigned) [Example 271, 1-((2S,4*)-4-(((1R,2*)-5-(2-(2-aminopyridin-3-yl)-5-(3-fluoro-1H-pyrazol-1-yl)-3H-imidazo[4,5-b]pyridin-3-yl)-2-fluoro-2,3-dihydro-1H-inden-1-yl)amino)-2-methylpiperidin-1-yl)prop-2-en-1-one]
